Experimental data reported in PubChem BioAssay AID1259407 (Chemical Carcinogenesis Research Information System (CCRIS), 2018).
Calls of active or inactive are those of the source. The rule behind the calls is not given here.

System: CCRIS mutagenicity, Ames/micronucleus/aberration tests
Assay: CCRIS mutagenicity studies

Question: Which results are given for `CN(C)CCN(Cc1cccs1)c1ccccn1`?
Answer: mutagenic call (Test System: AMES SALMONELLA TYPHIMURIUM, Strain/Indicator: TA97, Metabolic Activation: RAT, LIVER, S-9, AROCLOR 1254, Method: STANDARD PLATE): inactive; negative; mutagenic call (Test System: AMES SALMONELLA TYPHIMURIUM, Strain/Indicator: TA98, Metabolic Activation: HAMSTER LIVER S-9, AROCLOR 1254 (10%), Method: PREINCUBATION): inactive; negative; mutagenic call (Test System: AMES SALMONELLA TYPHIMURIUM, Strain/Indicator: TA98, Metabolic Activation: NONE, Method: PREINCUBATION): inactive; negative; mutagenic call (Test System: AMES SALMONELLA TYPHIMURIUM, Strain/Indicator: TA98, Metabolic Activation: NONE, Method: STANDARD PLATE): inactive; negative; mutagenic call (Test System: AMES SALMONELLA TYPHIMURIUM, Strain/Indicator: TA98, Metabolic Activation: RAT LIVER S-9, AROCLOR 1254 (10%), Method: PREINCUBATION): inactive; negative; mutagenic call (Test System: AMES SALMONELLA TYPHIMURIUM, Strain/Indicator: TA98, Metabolic Activation: RAT, LIVER, S-9, AROCLOR 1254, Method: PREINCUBATION): inactive; negative; mutagenic call (Test System: AMES SALMONELLA TYPHIMURIUM, Strain/Indicator: TA98, Metabolic Activation: RAT, LIVER, S-9, AROCLOR 1254, Method: STANDARD PLATE): inactive; negative; mutagenic call (Test System: AMES SALMONELLA TYPHIMURIUM, Strain/Indicator: TA98, Metabolic Activation: RAT, LIVER, S-9, Method: STANDARD PLATE): inactive; negative; mutagenic call (Test System: AMES SALMONELLA TYPHIMURIUM, Strain/Indicator: TA98, Method: STANDARD PLATE): inactive; negative; mutagenic call (Test System: AMES SALMONELLA TYPHIMURIUM, Strain/Indicator: TA100, Metabolic Activation: HAMSTER LIVER S-9, AROCLOR 1254 (10%), Method: PREINCUBATION): inactive; negative; mutagenic call (Test System: AMES SALMONELLA TYPHIMURIUM, Strain/Indicator: TA100, Metabolic Activation: NONE, Method: PREINCUBATION): inactive; negative; mutagenic call (Test System: AMES SALMONELLA TYPHIMURIUM, Strain/Indicator: TA100, Metabolic Activation: NONE, Method: STANDARD PLATE): inactive; negative; mutagenic call (Test System: AMES SALMONELLA TYPHIMURIUM, Strain/Indicator: TA100, Metabolic Activation: RAT LIVER S-9, AROCLOR 1254 (10%), Method: PREINCUBATION): inactive; negative; mutagenic call (Test System: AMES SALMONELLA TYPHIMURIUM, Strain/Indicator: TA100, Metabolic Activation: RAT, LIVER, S-9, AROCLOR 1254, Method: STANDARD PLATE): inactive; negative; mutagenic call (Test System: AMES SALMONELLA TYPHIMURIUM, Strain/Indicator: TA100, Metabolic Activation: RAT, LIVER, S-9, Method: STANDARD PLATE): inactive; negative; mutagenic call (Test System: AMES SALMONELLA TYPHIMURIUM, Strain/Indicator: TA100, Method: STANDARD PLATE): inactive; negative; mutagenic call (Test System: AMES SALMONELLA TYPHIMURIUM, Strain/Indicator: TA104, Metabolic Activation: NONE, Method: STANDARD PLATE): inactive; negative; mutagenic call (Test System: AMES SALMONELLA TYPHIMURIUM, Strain/Indicator: TA104, Metabolic Activation: RAT, LIVER, S-9, AROCLOR 1254, Method: STANDARD PLATE): inactive; negative; mutagenic call (Test System: AMES SALMONELLA TYPHIMURIUM, Strain/Indicator: TA104, Metabolic Activation: RAT, LIVER, S-9, Method: STANDARD PLATE): inactive; negative; mutagenic call (Test System: AMES SALMONELLA TYPHIMURIUM, Strain/Indicator: TA104, Method: STANDARD PLATE): inactive; negative; mutagenic call (Test System: AMES SALMONELLA TYPHIMURIUM, Strain/Indicator: TA1535, Metabolic Activation: HAMSTER LIVER S-9, AROCLOR 1254 (10%), Method: PREINCUBATION): inactive; negative; mutagenic call (Test System: AMES SALMONELLA TYPHIMURIUM, Strain/Indicator: TA1535, Metabolic Activation: NONE, Method: PREINCUBATION): inactive; negative; mutagenic call (Test System: AMES SALMONELLA TYPHIMURIUM, Strain/Indicator: TA1535, Metabolic Activation: RAT LIVER S-9, AROCLOR 1254 (10%), Method: PREINCUBATION): inactive; negative; mutagenic call (Test System: AMES SALMONELLA TYPHIMURIUM, Strain/Indicator: TA1535, Metabolic Activation: RAT, LIVER, S-9, AROCLOR 1254, Method: STANDARD PLATE): inactive; negative; mutagenic call (Test System: AMES SALMONELLA TYPHIMURIUM, Strain/Indicator: TA1535, Metabolic Activation: RAT, LIVER, S-9, Method: STANDARD PLATE): inactive; negative; mutagenic call (Test System: AMES SALMONELLA TYPHIMURIUM, Strain/Indicator: TA1535, Method: STANDARD PLATE): inactive; negative; mutagenic call (Test System: AMES SALMONELLA TYPHIMURIUM, Strain/Indicator: TA1537, Metabolic Activation: HAMSTER LIVER S-9, AROCLOR 1254 (10%), Method: PREINCUBATION): inactive; negative; mutagenic call (Test System: AMES SALMONELLA TYPHIMURIUM, Strain/Indicator: TA1537, Metabolic Activation: NONE, Method: PREINCUBATION): inactive; negative; mutagenic call (Test System: AMES SALMONELLA TYPHIMURIUM, Strain/Indicator: TA1537, Metabolic Activation: NONE, Method: STANDARD PLATE): inactive; negative; mutagenic call (Test System: AMES SALMONELLA TYPHIMURIUM, Strain/Indicator: TA1537, Metabolic Activation: RAT LIVER S-9, AROCLOR 1254 (10%), Method: PREINCUBATION): inactive; negative; mutagenic call (Test System: AMES SALMONELLA TYPHIMURIUM, Strain/Indicator: TA1537, Metabolic Activation: RAT, LIVER, S-9, AROCLOR 1254, Method: STANDARD PLATE): inactive; negative; mutagenic call (Test System: AMES SALMONELLA TYPHIMURIUM, Strain/Indicator: TA1537, Metabolic Activation: RAT, LIVER, S-9, Method: STANDARD PLATE): inactive; negative; mutagenic call (Test System: AMES SALMONELLA TYPHIMURIUM, Strain/Indicator: TA1537, Method: STANDARD PLATE): inactive; negative; mutagenic call (Test System: AMES SALMONELLA TYPHIMURIUM, Strain/Indicator: TA1538, Metabolic Activation: RAT, LIVER, S-9, AROCLOR 1254, Method: STANDARD PLATE): inactive; negative; mutagenic call (Test System: AMES SALMONELLA TYPHIMURIUM, Strain/Indicator: TA2638, Metabolic Activation: NONE, Method: STANDARD PLATE): inactive; negative; mutagenic call (Test System: AMES SALMONELLA TYPHIMURIUM, Strain/Indicator: TA2638, Metabolic Activation: RAT, LIVER, S-9, AROCLOR 1254, Method: STANDARD PLATE): inactive; negative; mutagenic call (Test System: AMES SALMONELLA TYPHIMURIUM, Strain/Indicator: TA2638, Metabolic Activation: RAT, LIVER, S-9, Method: STANDARD PLATE): inactive; negative; mutagenic call (Test System: AMES SALMONELLA TYPHIMURIUM, Strain/Indicator: TA2638, Method: STANDARD PLATE): inactive; negative; mutagenic call (Test System: CHINESE HAMSTER OVARY, Strain/Indicator: CHO-K1-BH4 (HGPRT), Metabolic Activation: NONE, Method: SUSPENSION/PLATE): inactive; negative; mutagenic call (Test System: CHINESE HAMSTER OVARY, Strain/Indicator: CHO-K1-BH4 (HGPRT), Metabolic Activation: RAT, LIVER, S-9, AROCLOR, Method: SUSPENSION/PLATE): inactive; negative; mutagenic call (Test System: E. COLI, Strain/Indicator: WP2 UVRA, Metabolic Activation: NONE, Method: STANDARD PLATE): inactive; negative; mutagenic call (Test System: E. COLI, Strain/Indicator: WP2 UVRA, Metabolic Activation: RAT, LIVER, S-9, AROCLOR 1254, Method: STANDARD PLATE): inactive; negative; mutagenic call (Test System: E. COLI, Strain/Indicator: WP2 UVRA, Metabolic Activation: RAT, LIVER, S-9, Method: STANDARD PLATE): inactive; negative; mutagenic call (Test System: E. COLI, Strain/Indicator: WP2 UVRA, Method: STANDARD PLATE): inactive; negative; mutagenic call (Test System: MOUSE LYMPHOMA, Strain/Indicator: L5178Y (TK+/+)/TRIFLUOROTHYMIDINE, Metabolic Activation: RAT LIVER S-9, AROCLOR 1254, Method: SUSPENSION/PLATE): inactive; negative; mutagenic call (Test System: MOUSE LYMPHOMA, Strain/Indicator: L5178Y (TK+/TK-), Metabolic Activation: NONE, Method: SUSPENSION/PLATE): inactive; negative; mutagenic call (Test System: MOUSE LYMPHOMA, Strain/Indicator: L5178Y (TK+/TK-), Metabolic Activation: RAT, LIVER, S-9, AROCLOR 1242 AND 1254 (2:1), Method: SUSPENSION/PLATE): active; positive; mutagenic call (Test System: MOUSE LYMPHOMA, Strain/Indicator: L5178Y (TK+/TK-), Metabolic Activation: RAT, LIVER, S-9, AROCLOR 1242 AND 1254 (2:1 MIXTURE), Method: SUSPENSION/PLATE): active; positive; mutagenic call (Test System: MOUSE LYMPHOMA, Strain/Indicator: L5178Y (TK+/TK-), Metabolic Activation: RAT, LIVER, S-9, AROCLOR 1254, Method: SUSPENSION/PLATE): inactive; negative; mutagenic call (Test System: UDS RAT HEPATOCYTES, Strain/Indicator: THY INCORP, Metabolic Activation: NONE, Method: AUTORADIOGRAPHY (SERUM-FREE MEDIA)): active; positive

Question: For `O[Te](O)(O)(O)(O)O`, which mutagenic call (End Point: IN VITRO MICRONUCLEUS, Test System: HUMAN PERIPHERAL LYMPHOCYTES, Metabolic Activation: NONE, Method: FISH (CENTROMERIC SIGNAL CONTENT)) is on record?
Answer: active; positive

Question: `[Cl][Sn]([Cl])([Cl])[c]1ccccc1` was tested. Which mutagenic call (Test System: AMES SALMONELLA TYPHIMURIUM, Strain/Indicator: TA98, Metabolic Activation: NONE, Method: SUSPENSION/PLATE) did it give?
Answer: inactive; negative

Question: What about the mutagenic call (Test System: AMES SALMONELLA TYPHIMURIUM, Strain/Indicator: TA100, Metabolic Activation: NONE, Method: SUSPENSION/PLATE) of the same compound?
Answer: inactive; negative
